Data reported in patent US20230085307A1, “PYRIDAZINONE COMPOUND AND HERBICIDE” (NISSAN CHEMICAL CORPORATION, priority 2019, published 2023).

What was measured:
lambsquarters = assay: Test Example 5: herbicidal effect by foliage application, plastic box (Table 20, symbol O); type: in vivo, lambsquarters (Chenopodium album); conditions: foliage application
In short: (§1)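 Plants sown in sterilized diluvial soil and grown 14 days in a greenhouse at 25° C to 30° C, then sprayed on the foliage with the compound's emulsion diluted in water to a predetermined herbicide amount. Injury to weeds and crops scored three weeks after application on a visual rating scale.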

green foxtail [1] = assay: Test Example 5: herbicidal effect by foliage application, plastic box (Table 20, symbol G); type: in vivo, green foxtail (Setaria viridis); conditions: foliage application
In short: as §1

late watergrass = assay: Test Example 2: herbicidal activity, application during weed generation under submerged conditions (Table 17, symbol A); type: in vivo, late watergrass (Echinochloa oryzicola); conditions: AAH 320 g/ha; application during weed generation, submerged conditions
In short: (§2)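 Alluvial soil in Wagner pots was flooded to 4 cm depth and sown with the three weeds together; pots were kept in a greenhouse at 25° C. to 30° C. At the one to two leaf stage, an emulsion formulation diluted in water to a set rate went onto the water surface; scored three weeks later.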

southern crabgrass = assay: Test Example 4: herbicidal effect by soil treatment (Table 19, symbol F); type: in vivo, southern crabgrass (Digitaria ciliaris); conditions: for herbicidal effect rating, F: southern crabgrass: 320 g/ha
In short: (§3)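 Seeds were sown in sterilized diluvial soil and covered with about 1.5 cm of soil. An emulsion formulation diluted with water to a predetermined herbicide amount was sprayed evenly onto the soil surface. Plants grew in a greenhouse at 25° C. to 30° C., and the effect was scored three weeks after application using criteria from an earlier test.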

wild oat = assay: Test Example 4: herbicidal effect by soil treatment (Table 19, symbol I); type: in vivo, wild oat (Avena fatua); conditions: for herbicidal effect rating, I: wild oat: 320 g/ha
In short: as §3

persian speedwell = assay: Test Example 5: herbicidal effect by foliage application, plastic box (Table 20, symbol R); type: in vivo, Persian speedwell (Veronica persica); conditions: foliage application
In short: as §1

Italian ryegrass = assay: Test Example 5: herbicidal effect by foliage application, plastic box (Table 20, symbol K); type: in vivo, Italian ryegrass (Lolium multiflorum); conditions: foliage application
In short: as §1

redroot pigweed = assay: Test Example 4: herbicidal effect by soil treatment (Table 19, symbol N); type: in vivo, redroot pigweed (Amaranthus retroflexus); conditions: for herbicidal effect rating, N: redroot pigweed: 320 g/ha
In short: as §3

blackgrass = assay: Test Example 4: herbicidal effect by soil treatment (Table 19, symbol J); type: in vivo, blackgrass (Alopecurus myosuroides); conditions: for herbicidal effect rating, J: blackgrass: 320 g/ha
In short: as §3

oval-leafed pondweed = assay: Test Example 2: herbicidal activity, application during weed generation under submerged conditions (Table 17, symbol C); type: in vivo, oval-leafed pondweed (Monochoria vaginalis); conditions: AAH 320 g/ha; application during weed generation, submerged conditions
In short: as §2

false cleavers [2] = assay: Test Example 4: herbicidal effect by soil treatment (Table 19, symbol Q); type: in vivo, false cleavers (Galium spurium); conditions: AAH 320 g/ha
In short: as §3

Japanese bulrush = assay: Test Example 2: herbicidal activity, application during weed generation under submerged conditions (Table 17, symbol B); type: in vivo, Japanese bulrush (Schoenoplectus juncoides); conditions: AAH 320 g/ha; application during weed generation, submerged conditions
In short: as §2

velvetleaf = assay: Test Example 4: herbicidal effect by soil treatment (Table 19, symbol M); type: in vivo, velvetleaf (Abutilon theophrasti); conditions: for herbicidal effect rating, M: velvetleaf: 320 g/ha
In short: as §3

green foxtail [3] = assay: Test Example 4: herbicidal effect by soil treatment (Table 19, symbol G); type: in vivo, green foxtail (Setaria viridis); conditions: for herbicidal effect rating, G: green foxtail: 320 g/ha
In short: as §3

false cleavers [4] = assay: Test Example 5: herbicidal effect by foliage application, plastic box (Table 20, symbol Q); type: in vivo, false cleavers (Galium spurium); conditions: foliage application, evaluated three weeks after application; for herbicidal effect on Q: false cleavers: 320 g/ha
In short: as §1

barnyard grass = assay: Test Example 4: herbicidal effect by soil treatment (Table 19, symbol H); type: in vivo, barnyard grass (Echinochloa crus-galli); conditions: for herbicidal effect rating, H: barnyard grass: 320 g/ha
In short: as §3

[5] = 320 g/ha, 3 weeks after application
[6] = 320 g/ha, evaluated three weeks after application
[7] = AAH 320 g/ha, evaluated three weeks after application
[8] = amount of applied herbicide 320 g/ha

Row | SMILES | herbicidal effect rating, A: late watergrass (late watergrass) | herbicidal effect rating, C: oval-leafed pondweed (oval-leafed pondweed) | herbicidal effect rating, B: Japanese bulrush (Japanese bulrush) | herbicidal effect on O: lambsquarters (lambsquarters; [6]) | herbicidal effect on Q: false cleavers (false cleavers [4]) | herbicidal effect on G: green foxtail (green foxtail [1]; [6]) | herbicidal effect rating, F: southern crabgrass (southern crabgrass) | herbicidal effect rating, I: wild oat (wild oat) | herbicidal effect on R: persian speedwell (persian speedwell; [6]) | herbicidal effect on K: Italian ryegrass (Italian ryegrass; [6]) | herbicidal effect rating, N: redroot pigweed (redroot pigweed) | herbicidal effect rating, J: blackgrass (blackgrass) | herbicidal effect rating, M: velvetleaf (velvetleaf) | herbicidal effect rating, H: barnyard grass (barnyard grass) | herbicidal effect rating, G: green foxtail (green foxtail [3]) | also measured
1 | C#CC(C)Oc1ccc(-c2sc3ccccc3c2-c2c(O)c(C)nn(C)c2=O)cc1 (racemic) [1-217] | 0 (Herbicidal rate of 5% or less (almost no effect)) | 3 (Herbicidal rate of 40% or more and less than 70%) | 3 (Herbicidal rate of 40% or more and less than 70%) |  |  |  |  |  |  |  |  |  |  |  |  | effect on lambsquarters (O) (lambsquarters; [5]): 5 (Herbicidal rate of 90% or more (almost completely withered)); effect on green foxtail (G) (green foxtail [1]; [5]): 4 (Herbicidal rate of 70% or more and less than 90%); F: southern crabgrass, herbicidal effect rating (southern crabgrass; AAH 320 g/ha): 0 (Herbicidal rate of 5% or less (almost no effect)); I: wild oat, herbicidal effect rating (wild oat; AAH 320 g/ha): 0 (Herbicidal rate of 5% or less (almost no effect)); effect on persian speedwell (R) (persian speedwell; [5]): 5 (Herbicidal rate of 90% or more (almost completely withered)); effect on Italian ryegrass (K) (Italian ryegrass; [5]): 5 (Herbicidal rate of 90% or more (almost completely withered)); N: redroot pigweed, herbicidal effect rating (redroot pigweed; AAH 320 g/ha): 4 (Herbicidal rate of 70% or more and less than 90%); J: blackgrass, herbicidal effect rating (blackgrass; AAH 320 g/ha): 0 (Herbicidal rate of 5% or less (almost no effect)); Q: false cleavers, herbicidal effect rating (false cleavers [2]): 3 (Herbicidal rate of 40% or more and less than 70%); M: velvetleaf, herbicidal effect rating (velvetleaf; AAH 320 g/ha): 0 (Herbicidal rate of 5% or less (almost no effect)); G: green foxtail, herbicidal effect rating (green foxtail [3]; AAH 320 g/ha): 3 (Herbicidal rate of 40% or more and less than 70%)
2 | CCOc1cc(F)ccc1-c1sc2ccc(F)cc2c1-c1c(O)c(C)nn(C)c1=O [2-084] | 2 (Herbicidal rate of 20% or more and less than 40%) | 3 (Herbicidal rate of 40% or more and less than 70%) | 1 (Herbicidal rate of 5% or more and less than 20%) | 3 (Herbicidal rate of 40% or more and less than 70%) | 5 (Herbicidal rate of 90% or more (almost completely withered)) | 5 (Herbicidal rate of 90% or more (almost completely withered)) | 5 (Herbicidal rate of 90% or more (almost completely withered)) | 2 (Herbicidal rate of 20% or more and less than 40%) | 5 (Herbicidal rate of 90% or more (almost completely withered)) | 3 (Herbicidal rate of 40% or more and less than 70%) | 5 (Herbicidal rate of 90% or more (almost completely withered)) | 2 (Herbicidal rate of 20% or more and less than 40%) | 3 (Herbicidal rate of 40% or more and less than 70%) | 4 (Herbicidal rate of 70% or more and less than 90%) | 4 (Herbicidal rate of 70% or more and less than 90%) | 
3 | Cc1nn(C)c(=O)c(-c2c(-c3ccc4c(c3)OCCO4)sc3ccc(F)cc23)c1O [2-092] | 0 (Herbicidal rate of 5% or less (almost no effect)) | 4 (Herbicidal rate of 70% or more and less than 90%) | 3 (Herbicidal rate of 40% or more and less than 70%) | 5 (Herbicidal rate of 90% or more (almost completely withered)) | 4 (Herbicidal rate of 70% or more and less than 90%) | 4 (Herbicidal rate of 70% or more and less than 90%) | 2 (Herbicidal rate of 20% or more and less than 40%) | 0 (Herbicidal rate of 5% or less (almost no effect)) | 5 (Herbicidal rate of 90% or more (almost completely withered)) | 4 (Herbicidal rate of 70% or more and less than 90%) | 4 (Herbicidal rate of 70% or more and less than 90%) | 0 (Herbicidal rate of 5% or less (almost no effect)) | 5 (Herbicidal rate of 90% or more (almost completely withered)) | 3 (Herbicidal rate of 40% or more and less than 70%) | 2 (Herbicidal rate of 20% or more and less than 40%) | 
4 | Cc1nn(C)c(=O)c(-c2c(-c3ccc(OC(F)F)cc3)sc3ccc(F)cc23)c1OC(=O)OCCCl [2-293] | 4 (Herbicidal rate of 70% or more and less than 90%) | 4 (Herbicidal rate of 70% or more and less than 90%) | 3 (Herbicidal rate of 40% or more and less than 70%) |  |  |  |  |  |  |  |  |  |  |  |  | O: lambsquarters, herbicidal effect (criteria 0-5) (lambsquarters; [7]): 5 (Herbicidal rate of 90% or more (almost completely withered)); Q: false cleavers, herbicidal effect (criteria 0-5) (false cleavers [4]; AAH 320 g/ha): 5 (Herbicidal rate of 90% or more (almost completely withered)); G: green foxtail, herbicidal effect (criteria 0-5) (green foxtail [1]; [7]): 5 (Herbicidal rate of 90% or more (almost completely withered)); herbicidal effect on F: southern crabgrass (southern crabgrass; [8]): 4 (Herbicidal rate of 70% or more and less than 90%); herbicidal effect on I: wild oat (wild oat; [8]): 0 (Herbicidal rate of 5% or less (almost no effect)); R: persian speedwell, herbicidal effect (criteria 0-5) (persian speedwell; [7]): 5 (Herbicidal rate of 90% or more (almost completely withered)); K: Italian ryegrass, herbicidal effect (criteria 0-5) (Italian ryegrass; [7]): 5 (Herbicidal rate of 90% or more (almost completely withered)); herbicidal effect on N: redroot pigweed (redroot pigweed; [8]): 5 (Herbicidal rate of 90% or more (almost completely withered)); herbicidal effect on J: blackgrass (blackgrass; [8]): 5 (Herbicidal rate of 90% or more (almost completely withered)); herbicidal effect on M: velvetleaf (velvetleaf; [8]): 5 (Herbicidal rate of 90% or more (almost completely withered)); herbicidal effect on H: barnyard grass (barnyard grass; [8]): 5 (Herbicidal rate of 90% or more (almost completely withered)); herbicidal effect on G: green foxtail (green foxtail [3]; [8]): 5 (Herbicidal rate of 90% or more (almost completely withered))
